According to ChEMBL document CHEMBL1148215, “Lipoxygenase inhibitory constituents from Periploca aphylla” (J Nat Prod, 2004):

Test: Inhibition of Lipoxygenase 1B
`CC(C)(O)/C=C/C1=CC(=O)[C@H](O)C[C@]1(C)O` showed an IC50 of 150 µM. With `Oc1cc(O)c2c(c1)O[C@H](c1ccc(O)c(Oc3cc([C@H]4Oc5cc(O)cc(O)c5C[C@@H]4O)ccc3O)c1)[C@@H](O)C2` the IC50 was 19.7 µM. In the case of `Oc1cc(O)c2c(c1)O[C@H](c1ccc(O)c(Oc3cc(O)c4c(c3)O[C@H](c3ccc(O)c(O)c3)[C@H](O)C4)c1)[C@H](O)C2`, the IC50 is reported as 13.5 µM. For `O=c1cc(-c2ccccc2)oc2cc(O)c(O)c(O)c12` [BAICALEIN], the IC50 was 22.6 µM.
